The test system of assay [1] is Cotton Aphid (Aphis gossypii). The experiment in a line: Cotton aphid (Aphis gossypii) cotyledon dip test, mortality. Type of assay: in vivo. To be noted: 120 h, cotton cotyledons dipped, mortality counts after 5 days, read-out: mortality in comparison with untreated controls. The source says: B.1 Cotton Aphid (Aphis gossypii)
(§1) The active compounds were formulated in 50:50 acetone:water and 100 ppm Kinetic® surfactant.
Cotton plants at the cotyledon stage (one plant per pot) were infested by placing a heavily infested leaf from the main colony on top of each cotyledon. The aphids were allowed to transfer to the host plant overnight, and the leaf used to transfer the aphids was removed. The cotyledons were dipped in the test solution and allowed to dry. After 5 days, mortality counts were made.

Assay [2] concerns Green Peach Aphid (Myzus Persicae). The experiment in a line: Green peach aphid (Myzus persicae) pepper leaf dip test, mortality. Type of assay: in vivo. To be noted: foliar, 120 h, pepper plant leaves dipped, aphid mortality after 5 days, read-out: mortality in comparison with untreated controls.
From the text: B.2 Green Peach Aphid (Myzus Persicae)
as §1
Pepper plants in the 2nd leaf-pair stage (variety ‘California Wonder’) were infested with approximately 40 laboratory-reared aphids by placing infested leaf sections on top of the test plants. The leaf sections were removed after 24 hr. The leaves of the intact plants were dipped into gradient solutions of the test compound and allowed to dry. Test plants were maintained under fluorescent light (24 hour photoperiod) at about 25° C. and 20-40% relative humidity. Aphid mortality on the treated plants, relative to mortality on check plants, was determined after 5 days.

As for `C#CCN(C)C1=NS(=O)(=O)c2cccc(F)c21` [Compound 66], the mortality at 300 ppm in assay [1] is > 86%.

As for `C#CCON(C)C1=NS(=O)(=O)c2cccc(Cl)c21` [Compound 103], in assay [1], the mortality at 300 ppm is > 86%.

Regarding `CCN(CC)c1n[s+]([O-])c2cccc(OC)c12` (centres unmarked) [Compound 95], the mortality at 300 ppm in assay [2] and in assay [1] was > 86% each time.

For `CCON(C1=NS(=O)(=O)c2cccc(OC(F)F)c21)C(C)C` [Compound 111], the mortality at 300 ppm in assay [2] and in assay [1] was > 86% in each case.

On to `C=CCN(C)C1=NS(=O)(=O)c2cccc(Cl)c21` [Compound 20], for which the mortality at 300 ppm in assay [1] was > 86%.

Regarding `CCCN(C)C1=NS(=O)(=O)c2cccc(Cl)c21` [Compound 19], the mortality at 300 ppm in assay [2] and in assay [1] was > 86% in each case.

For `CCN(CC)C1=NS(=O)(=O)c2cccc(OC(F)F)c21` [Compound 31, (4-Difluoromethoxy-1,1-dioxo-1H-1λ^6-benzo[d]isothiazol-3-yl)-diethyl-amine], the mortality at 300 ppm in assay [2] and in assay [1] was > 86% in each case.

With `CCN(C)C1=NS(=O)(=O)c2c(F)ccc(OC)c21` [Compound 91], the mortality at 300 ppm in assay [2] and in assay [1] was > 86% each time.

Regarding `CCON(C)C1=NS(=O)(=O)c2cccc(OC(F)F)c21` [Compound 110], the mortality at 300 ppm in assay [2] and in assay [1] was > 86% throughout.

Consider `CN(c1nsc2cccc(Cl)c12)C1CCCC1` [Compound 93], for which the mortality at 300 ppm in assay [2] and in assay [1] was > 86% in each case.

In the case of `O=S1(=O)N=C(N(O)Cc2ccccc2)c2c(Cl)cccc21` [Compound 104], the mortality at 300 ppm in assay [1] is > 86%.

On to `CN(CC(F)(F)F)C1=NS(=O)(=O)c2cccc(OC(F)F)c21` [Compound 53], for which the mortality at 300 ppm in assay [2] and in assay [1] was > 86% throughout.

As for `CCN(C)c1nsc2cccc(F)c12` [Compound 79], in assay [1], the mortality at 300 ppm is > 86%.

For `COc1ccc(F)c2c1C(N(C)CC#N)=NS2(=O)=O` [Compound 96], the mortality at 300 ppm in assay [2] and in assay [1] was > 86% throughout.

Take `CCON(CC)C1=NS(=O)(=O)c2cccc(OC(F)F)c21` [Compound 112]: the mortality at 300 ppm in assay [2] and in assay [1] was > 86% throughout.

For `COc1ccc(F)c2c1C(N(C)C)=NS2(=O)=O` [Compound 90], the mortality at 300 ppm in assay [1] is > 86%.

With `CCN(CC)C1=NS(=O)(=O)c2c(F)ccc(OC)c21` [Compound 89], the mortality at 300 ppm in assay [2] and in assay [1] was > 86% throughout.

Take `C#CCN(OCC)C1=NS(=O)(=O)c2cccc(Cl)c21` [Compound 107]: the mortality at 300 ppm in assay [1] is > 86%.

Consider `CCN(CC)c1nsc2cccc(OC)c12` [Compound 76], for which the mortality at 300 ppm in assay [2] and in assay [1] was > 86% throughout.

For the compound `COc1cccc2c1C(N(C)C)=NS2(=O)=O` [Compound 54], the mortality at 300 ppm in assay [1] is > 86%.

Turning to `CCN(CC)C1=NS(=O)(=O)c2cccc(F)c21` [Compound 65], the mortality at 300 ppm in assay [1] is > 86%.

Regarding `C#CCN(C1=NS(=O)(=O)c2cccc(F)c21)C(C)C` [Compound 72], the mortality at 300 ppm in assay [1] is > 86%.

For the compound `COc1cccc2c1C(N1CCOCC1)=NS2(=O)=O` [Compound 26], in assay [1], the mortality at 300 ppm was > 86%.

Consider `CCN(C)C1=NS(=O)(=O)c2cccc(OC(F)F)c21` [Compound 34], for which the mortality at 300 ppm in assay [2] and in assay [1] was > 86% in each case.

Regarding `C#CCN(C)C1=NS(=O)(=O)c2cccc(OC(F)F)c21` [Compound 39], the mortality at 300 ppm in assay [2] and in assay [1] was > 86% in each case.

With `C=CCN(C)C1=NS(=O)(=O)c2cccc(F)c21` [Compound 69], the mortality at 300 ppm in assay [1] is > 86%.

For `COc1cccc2c1C(N(C(C)C)C1CC1)=NS2(=O)=O` [Compound 55], the mortality at 300 ppm in assay [1] was > 86%.

`CC(C)N(C)C1=NS(=O)(=O)c2cccc(OC(F)F)c21` [Compound 41]: the mortality at 300 ppm in assay [2] and in assay [1] was > 86% in each case.

Regarding `CCN(C1=NS(=O)(=O)c2cccc(OC(F)F)c21)C(C)C` [Compound 33], the mortality at 300 ppm in assay [2] and in assay [1] was > 86% in each case.

As for `COc1cccc2snc(N(C)Cc3ccccc3)c12` [Compound 92], the mortality at 300 ppm in assay [2] and in assay [1] was > 86% throughout.

`CCN(CC)c1n[s+]([O-])c2cccc(Cl)c12` (centres unmarked) [Compound 74]: the mortality at 300 ppm in assay [2] and in assay [1] was > 86% in each case.

Turning to `CCC(C)N(O)C1=NS(=O)(=O)c2cccc(Cl)c21` (centres unmarked) [Compound 99], the mortality at 300 ppm in assay [1] was > 86%.

For `CCCN(C)C1=NS(=O)(=O)c2cccc(OC(F)F)c21` [Compound 38], the mortality at 300 ppm in assay [2] and in assay [1] was > 86% each time.

Take `CC(C)ON(C1=NS(=O)(=O)c2cccc(Cl)c21)C(C)C` [Compound 101]: the mortality at 300 ppm in assay [1] was > 86%.

For the compound `CC(C)CN(C)c1nsc2cccc(Cl)c12` [Compound 44], in assay [1], the mortality at 300 ppm was > 86%.

As for `CC(C)ON(C)C1=NS(=O)(=O)c2cccc(Cl)c21` [Compound 102], the mortality at 300 ppm in assay [1] was > 86%.

Take `CCON(CC)C1=NS(=O)(=O)c2cccc(Cl)c21` [Compound 106]: the mortality at 300 ppm in assay [1] was > 86%.

Regarding `CC(C)CN(C)C1=NS(=O)(=O)c2cccc(F)c21` [Compound 70], the mortality at 300 ppm in assay [1] was > 86%.

As for `C#CCN(C1=NS(=O)(=O)c2cccc(OC)c21)C(C)C` [Compound 29], the mortality at 300 ppm in assay [1] was > 86%.

Turning to `CC(C)N(C)c1nsc2cccc(Cl)c12` [Compound 86], the mortality at 300 ppm in assay [2] and in assay [1] was > 86% in each case.

As to `C=CCN(C)C1=NS(=O)(=O)c2cccc(OC(F)F)c21` [Compound 40], the mortality at 300 ppm in assay [2] and in assay [1] was > 86% each time.

For the compound `CCN(C)c1nsc2cccc(OC)c12` [Compound 81], the mortality at 300 ppm in assay [2] and in assay [1] was > 86% each time.

`COC(OC)C(C)N(C)C1=NS(=O)(=O)c2cccc(Cl)c21` (centres unmarked) [Compound 16]: the mortality at 300 ppm in assay [1] is > 86%.

With `CCN(C)C1=NS(=O)(=O)c2cccc(OC)c21` [Compound 30, Ethyl-(4-methoxy-1,1-dioxo-1H-1λ^6-benzo[d]isothiazol-3-yl)-methyl-amine], the mortality at 300 ppm in assay [2] and in assay [1] was > 86% each time.

Consider `COc1cccc2c1c(N(C)C)n[s+]2[O-]` (centres unmarked) [Compound 94], for which the mortality at 300 ppm in assay [2] and in assay [1] was > 86% each time.

With `C#CCN(C)C1=NS(=O)(=O)c2cccc(Cl)c21` [Compound 21], the mortality at 300 ppm in assay [1] is > 86%.

For the compound `CCCN(C)C1=NS(=O)(=O)c2cccc(F)c21` [Compound 68], in assay [1], the mortality at 300 ppm was > 86%.

As to `CCCN(CCC)C1=NS(=O)(=O)c2cccc(F)c21` [Compound 67], the mortality at 300 ppm in assay [1] is > 86%.

Take `C#CC(C)N(C1=NS(=O)(=O)c2cccc(Cl)c21)C(C)C` (centres unmarked) [Compound 14]: the mortality at 300 ppm in assay [1] was > 86%.

With `C=CCN(C)c1nsc2cccc(Cl)c12` [Compound 45], the mortality at 300 ppm in assay [1] was > 86%.

As to `COc1cccc2c1c(N(C)CC(C)C)n[s+]2[O-]` (centres unmarked) [Compound 84], in assay [1], the mortality at 300 ppm is > 86%.

Regarding `CC(C)N(C1=NS(=O)(=O)c2cccc(F)c21)C1CC1` [Compound 71], in assay [1], the mortality at 300 ppm was > 86%.

In the case of `CON(C)C1=NS(=O)(=O)c2cccc(F)c21` [Compound 100], the mortality at 300 ppm in assay [1] is > 86%.

Regarding `CN(CC(F)(F)F)C1=NS(=O)(=O)c2cccc(Cl)c21` [Compound 56], the mortality at 300 ppm in assay [1] was > 86%.

Regarding `C=CCN(CC=C)C1=NS(=O)(=O)c2cccc(Cl)c21` [Compound 10], the mortality at 300 ppm in assay [1] is > 86%.

For the compound `CCN(CC(F)(F)F)C1=NS(=O)(=O)c2cccc(Cl)c21` [Compound 13], the mortality at 300 ppm in assay [1] was > 86%.

As for `COC(CN(C)c1nsc2cccc(Cl)c12)OC` [Compound 46], the mortality at 300 ppm in assay [1] is > 86%.

`CC(C)N(C1=NS(=O)(=O)c2cccc(OC(F)F)c21)C1CC1` [Compound 35]: the mortality at 300 ppm in assay [1] was > 86%.

Turning to `CCN(CC)c1nsc2ccc(I)c(Cl)c12` [Compound 61], the mortality at 300 ppm in assay [1] was > 86%.

For the compound `CCN(C)c1nsc2ccc(I)c(Cl)c12` [Compound 60], the mortality at 300 ppm in assay [1] was > 86%.

On to `CC(C)CN(C)C1=NS(=O)(=O)c2cccc(Cl)c21` [Compound 22, (4-Chloro-1,1-dioxo-1H-1λ^6-benzo[d]isothiazol-3-yl)-isobutyl-methyl-amine], for which the mortality at 300 ppm in assay [1] was > 86%.

With `C#CCON(C1=NS(=O)(=O)c2cccc(Cl)c21)C(C)C` [Compound 105], the mortality at 300 ppm in assay [1] is > 86%.

As to `CC(C)N(C)C1=NS(=O)(=O)c2cccc(Cl)c21` [Compound 52], the mortality at 300 ppm in assay [1] was > 86%.

With `CN(C)C1=NS(=O)(=O)c2cccc(F)c21` [Compound 63], the mortality at 300 ppm in assay [1] is > 86%.

As for `CC(C)CN(C)c1n[s+]([O-])c2cccc(Cl)c12` (centres unmarked) [Compound 77], in assay [1], the mortality at 300 ppm was > 86%.

`COC(CN(C)C1=NS(=O)(=O)c2cccc(Cl)c21)OC` [Compound 17]: the mortality at 300 ppm in assay [1] is > 86%.

With `COC(C)CN(C)C1=NS(=O)(=O)c2cccc(Cl)c21` (centres unmarked) [Compound 18], the mortality at 300 ppm in assay [1] was > 86%.

On to `O=S1(=O)N=C(N2CCCC2)c2c(Cl)cccc21` [Compound 1], for which, in assay [1], the mortality at 300 ppm is > 86%.

A word on the mortality: it is the share of the test organisms that died.
